Reference: paper PMC6753678, “Fueling Open Innovation for Malaria Transmission-Blocking Drugs: Hundreds of Molecules Targeting Early Parasite Mosquito Stages” (Frontiers in Microbiology, 2019)
pIC50: −log10 of the molar value. Values joined by “and” are separate entries in the source; they are usually repeats but may differ in a detail not shown here. Identical values can stand only once. Like-named read-outs stand apart in the source and are kept apart here.

Experiments:
[1] = test system: P. falciparum female gametocytes; test: P. falciparum Dual Gamete Formation Assay (Pf DGFA), female readout
[2] = test system: P. falciparum female gametocytes; set-up: method as in Miguel-Blanco et al 2017; details: TCAMS screen comparison; ref Miguel-Blanco et al 2017; read-out: Pf FGAA IC50; cited from earlier work
[3] = test system: P. falciparum male gametocytes; test: P. falciparum Dual Gamete Formation Assay (Pf DGFA), male readout
[4] = test system: P. falciparum oocyst intensity; set-up: method as in Colmenarejo et al., 2018; details: 2 μM; ref Colmenarejo et al., 2018; cited from earlier work
[5] = test system: HepG2 cells; details: cited from earlier work
[6] = HepG2 cytotoxicity assay; details: human, HepG2 cells
Summary of the method: (§1)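 HepG2 cells, 2,500 per well in MEM with 10% FBS and 1% NEAA, exposed to compounds for 48 h at 37°C, 5% CO2. Viability read by fluorescence; percent inhibition relative to 50 μM doxorubicin and DMSO controls.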

[7] = test system: HepG2 cells; test: HepG2 cytotoxicity assay
Summary of the method: as §1

[8] = test system: P. falciparum late stage (stages IV-V) gametocytes; set-up: method as in Almela et al 2016; details: TCAMS screen comparison; ref Almela et al 2016; read-out: Pf GCT ATP IC50; cited from earlier work
[9] = test system: 3D7-strain P. falciparum asexual parasites; test: P. falciparum asexual growth inhibition assay (Pf GIA); assay type: cell-based, Plasmodium falciparum; details: Plasmodium falciparum
Summary of the method: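 LDH readout: absorbance at 650 nm after 10 min at room temperature with lactate/APAD/NBT/diaphorase mix on thawed plates. Cultures (0.25% parasitemia, 2% hematocrit) were treated 72 h at 37°C in low-oxygen gas. Inhibition was normalised to 50 μM chloroquine and DMSO; n=3 biological replicates.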

[10] = test system: P. berghei ookinete development; test: microbe, parasite or virus in culture; details: Plasmodium berghei
[11] = test system: P. falciparum male gametogenesis; set-up: method as in Colmenarejo et al., 2018; details: 2 μM; ref Colmenarejo et al., 2018; cited from earlier work
[12] = test system: P. berghei oocyst intensity in Anopheles stephensi mosquitoes; test: P. berghei standard membrane feeding assay (Pb SMFA)
[13] = test system: P. berghei ookinete development; details: read-out: IC50 Pb ODA; dose response, at least triplicate

CCC1CN2CCc3cc(OC)c(OC)cc3C2CC1CC1NCCc2cc(OC)c(OC)cc21 (stereo not shown) [TCMDC-125849]
Pf DGFA Female, Expt 1 ([1]; 1µM, Expt 1): 99.68
Pf DGFA Female, Expt 2 ([1]; 1µM, Expt 2): 99.20
Pf DGFA Female, Expt 3 ([1]; 1µM, Expt 3): 99.79
Pf DGFA Female, Expt 4 ([1]; 1µM, Expt 4): 98.70
% inhibition Pf DGFA (female) 1 μM (±SEM) ([1]; 1 μM, mean of four experiments): 99.34%
inhibition at 1 µM ([1]; Plasmodium falciparum, read-out: % inhibition Pf DGFA (female) 1 μM (±SEM), 1 μM, mean of four experiments): 99.3%
pIC50 [2]: 5.74
Pf DGFA Male, Expt 1 ([3]; 1µM, Expt 1): 77.97
Pf DGFA Male, Expt 2 ([3]; 1µM, Expt 2): 55.40
Pf DGFA Male, Expt 3 ([3]; 1µM, Expt 3): 60.36
Pf DGFA Male, Expt 4 ([3]; 1µM, Expt 4): 68.13
% inhibition Pf DGFA (male) 1 μM (±SEM) ([3]; 1 μM, mean of four experiments): 65.46%
inhibition at 1 µM ([3]; Plasmodium falciparum, read-out: % inhibition Pf DGFA (male) 1 μM (±SEM), 1 μM, mean of four experiments): 65.5%
inhibition of oocyst intensity in P. falciparum [4]: 100%
HepG2 cytoxicity ([5]; value reported with the Pf FGAA screen, ref Miguel-Blanco et al 2017): 2.24 µM
HepG2 cytoxicity ([5]; value reported with the Pf GCT ATP screen, ref Almela et al 2016): 17.68 µM
IC50 at 48 h [6]: 24 µM
pIC50 ([7]; Homo sapiens, HepG2, 48 h, read-out: IC50 HepG2): 4.62
Unified cytotox ([7]; human): 14.64 µM
HepG2 cytoxicity ([7]; value reported with the Pb ODA screen, this manuscript): 23.99 µM
pIC50 [8]: 6.92
pIC50 ([9]; 3D7, dose response confirmation, read-out: Pf asexual growth inhibition assays IC50): 7.38
pIC50 ([9]; 3D7, 72 h, LDH readout, read-out: IC50 Pf Asexual): 7.38
inhibition at 1 µM ([10]; read-out: % inhibition, Replicate A): 118%
inhibition at 1 µM ([10]; read-out: % inhibition, Replicate B): 98.5%
pIC50 ([10]; read-out: IC50 Pb ODA, dose response, at least triplicate): 6.57
IC50 ([10]; read-out: Pb ODA IC50 (µM), this manuscript): 0.27 µM
inhibition of male gametogenesis in P. falciparum [11]: total inhibition
% inhibition Pb SMFA 1 μM (±SEM) ([12]; inhibition of oocyst intensity at 1 μM): 71.4%
inhibition at 1 µM ([12]; read-out: % inhibition Pb SMFA 1 μM (±SEM), inhibition of oocyst intensity at 1 μM): 71.4%
pIC50 [13]: < 6.60 and 6.57
